# In BindingDB's records for doi:10.1021/jm060521i (Karo Bio, 2006):
# Target: T1, Thyroid hormone receptor alpha (Homo sapiens, UniProt P10827)
# T1 sequence (P10827 whole entry): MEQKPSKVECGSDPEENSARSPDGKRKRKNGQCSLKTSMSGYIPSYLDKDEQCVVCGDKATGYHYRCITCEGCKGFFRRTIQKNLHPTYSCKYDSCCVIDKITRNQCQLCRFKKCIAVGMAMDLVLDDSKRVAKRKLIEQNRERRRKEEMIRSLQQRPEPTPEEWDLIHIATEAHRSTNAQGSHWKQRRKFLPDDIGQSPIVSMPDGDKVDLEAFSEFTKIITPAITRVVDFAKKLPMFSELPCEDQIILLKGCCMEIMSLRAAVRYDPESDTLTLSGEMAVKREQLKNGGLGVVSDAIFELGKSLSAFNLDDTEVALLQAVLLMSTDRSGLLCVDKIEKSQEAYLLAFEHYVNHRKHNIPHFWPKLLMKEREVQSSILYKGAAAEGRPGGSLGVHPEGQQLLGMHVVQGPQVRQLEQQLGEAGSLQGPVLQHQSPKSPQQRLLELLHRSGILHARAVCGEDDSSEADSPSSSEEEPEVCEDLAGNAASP
# Assay: TRalpha-Binding Assay and Thyroid Response Element (TRAFalpha1) Reporter Assay.
# Details: pH 7; 4 °C
# Text: EC50 is the concentration of compound required to inhibit 50% of T3-induced TRalpha-activation in CHOK1 cells stably transfected with hTRalpha using alkaline phosphatase reporter assay.
smiles,measurement,value
"CC(C)c1cc(Oc2c(Br)cc(CCC(=O)O)cc2Br)cc(/C=C/c2ccncc2)c1O [3-{3,5-dibromo-4-[4-hydroxy-3-(propan-2-yl)-5-[(E)-2-(pyridin-4-yl)ethenyl]phenoxy]phenyl}propanoic acid]",EC50,32 nM
